Patent US9889113B2, “Method for reversing, preventing, delaying or stabilizing soft tissue calcification” (Panion & BF Biotech, Inc., priority 2006, dated 2018)

Test system: cornea calcification in end stage renal disease patients
Test: Cornea calcification by slit-lamp photographs and Image J analysis, Phase II and open-label extension
Format: in vivo, human
Details: for 1st eye test Calcified area on cornea (%): baseline
Protocol: Eye examinations were carried out by using a slit-lamp microscope which was connected to a digital camera (NIKON E995). Calcifications in the cornea occur close to the nasal and temporal sides of the corneal limbus and look like the band keratopathy of hypercalcemia. Observer photographed the inner side (close to nasal), outer side (close to temporal) or took a full view of the cornea where calcification was found (FIG. 6).
An image analysis software called “Image J” was used for data analysis. The image analysis software is developed to display, edit, analyze, process, save and print 8-bit, 16-bit and 32-bit images. It can calculate area and pixel value statistics of user-defined selections, measure distances and angles, and create density histograms and line profile plots. It supports standard image processing functions such as contrast manipulation, sharpening, smoothing, edge detection and median filtering. The software is developed at the Research Services Branch of the National Institute of Mental Health, an institute of the National Institutes of Health (NIH). The software can be downloaded from the NIH website.
The image analysis software is able to measure calcified area and total cornea area that are subjectively defined by the user. To estimate calcified area, the observer first loads the patient's eye picture on to the image software, crops the specific calcified region, and the software will measure the defined section accordingly (defined as how many pixels in that area). […] To estimate the size of the full cornea, the observer used the image software to crop a 90 degrees fan-shape area on the available cornea region on the picture subjectively, and then let the software calculate the size of this fan-shape area to represent ¼ of the full cornea. By multiply the number by four, the observer then got an estimate of total cornea area.
The severity of cornea calcification was evaluated based on the percentage of the cornea surface occupied by calcification, i.e. % inner side calcification+% outer side calcification, wherein inner or outer side calcification is calculated as (calcified area on inner or outer cornea/total cornea area)×100.
In this study, patients were referred to ophthalmic department for eye examination before and after ferric citrate treatment. All patients had their 1st eye examination few days before or on the first dosing day of the Phase II trial (baseline value for cornea calcification). The time for 2nd eye examination was varied. Some were examined right after the Phase II study and some were examined during the OLE period. Nonetheless, disregarding when the 2nd eye examination was taken, it must be obtained after a defined consecutive days of ferric citrate administration in order to be considered as valid value for determinating the effects of ferric citrate on the cornea calcification changes.
All patients from the ferric citrate Phase II clinical trial were followed with a drug free period for various length of time, and some patients then participated in the open-label extension treatment period. Each participating patients received two eye examinations performed by an ophthalmologist. Depending on the dates of the first and second eye examinations and the corresponding drug dosing period, not all participating patients can generate usable information. The accepted patients were those who had received consecutive dosing for at least 21 days. The period between the first and second eye examination was at least as long as the dosing period. The actual interval between the two eye examinations was not relevant for the purpose of this evaluation since the longer the time between the first and second eye examination, the higher the possibility of cornea calcification development, not the other way around. […]

[1] = 11 patients on active treatment (22 eye values)
[2] = Subject 2-01-1-002, Left eye, 2 g/day, treatment 28 days, interval between tests 61 days
[3] = Subject 2-01-1-002, Right eye, 2 g/day, treatment 28 days, interval between tests 61 days
[4] = Subject 2-01-1-004, Left eye, 6 g/day, treatment 28 days, interval between tests 78 days
[5] = Subject 2-01-1-004, Right eye, 6 g/day, treatment 28 days, interval between tests 78 days
[6] = Subject 2-01-1-006, Left eye, 6 g/day, treatment 28 days, interval between tests 50 days
[7] = Subject 2-01-1-006, Right eye, 6 g/day, treatment 28 days, interval between tests 50 days
[8] = Subject 2-01-1-009, Left eye, 4 g/day, treatment 28 days, interval between tests 50 days
[9] = Subject 2-01-1-009, Right eye, 4 g/day, treatment 28 days, interval between tests 50 days
[10] = Subject 2-01-1-012, Left eye, 2 g/day, treatment 28 days, interval between tests 66 days
[11] = Subject 2-01-1-012, Right eye, 2 g/day, treatment 28 days, interval between tests 66 days
[12] = Subject 2-01-1-018, Left eye, 6 g/day, treatment 28 days, interval between tests 75 days
[13] = Subject 2-01-1-018, Right eye, 6 g/day, treatment 28 days, interval between tests 75 days
[14] = Subject 2-01-1-022, Left eye, 6 g/day, treatment 57 days, interval between tests 217 days
[15] = Subject 2-01-1-022, Right eye, 6 g/day, treatment 57 days, interval between tests 217 days
[16] = Subject 2-01-1-042, Left eye, 6 g/day, treatment 42 days, interval between tests 199 days
[17] = Subject 2-01-1-042, Right eye, 6 g/day, treatment 42 days, interval between tests 199 days
[18] = Subject 2-01-1-048, Left eye, 4 g/day, treatment 28 days, interval between tests 186 days
[19] = Subject 2-01-1-048, Right eye, 4 g/day, treatment 28 days, interval between tests 186 days
[20] = Subject 2-01-1-050, Left eye, 6 g/day, treatment 33 days, interval between tests 198 days
[21] = Subject 2-01-1-050, Right eye, 6 g/day, treatment 33 days, interval between tests 198 days
[22] = Subject 2-01-1-068, Left eye, 6 g/day, treatment 34 days, interval between tests 202 days
[23] = Subject 2-01-1-068, Right eye, 6 g/day, treatment 34 days, interval between tests 202 days

Structure (SMILES): O=C([O-])CC(O)(CC(=O)[O-])C(=O)[O-].[Fe+3] [ferric citrate]
- average change of worsened eye cornea calcification values (10 worsened eye values of 11 actively treated patients): +2.20%
- average change of improved eye cornea calcification values (11 improved eye values of 11 actively treated patients): −2.07%
- number of eye cornea calcification values that exhibited improvement [1]: 11
- number of eye cornea calcification values that remained unchanged [1]: one
- number of eye cornea calcification values that exhibited worsened results (11 patients on active treatment (22 eye values), 2-6 g/day, 28 to 57 days): 10
- effect on cornea calcification conditions (overall) (ESRD patients, 2-6 g/day): appears to delay or improve cornea calcification conditions
- cornea calcification after treatment (FIG. 10) (Patient ID 2-01-1-012, 2 g/day, treatment period 28 days): improved cornea calcification
- 2nd eye test Calcified area on cornea (%) [2]: 3.75%
- Difference between 1st and 2nd tests (%) [2]: −0.15%
- 1st eye test Calcified area on cornea (%) [2]: 3.90%
- 2nd eye test Calcified area on cornea (%) [3]: 0.00%
- Difference between 1st and 2nd tests (%) [3]: 0.00%
- 1st eye test Calcified area on cornea (%) [3]: 0.00%
- 2nd eye test Calcified area on cornea (%) [4]: 1.10%
- Difference between 1st and 2nd tests (%) [4]: −1.40%
- 1st eye test Calcified area on cornea (%) [4]: 2.50%
- 2nd eye test Calcified area on cornea (%) [5]: 2.20%
- Difference between 1st and 2nd tests (%) [5]: −2.18%
- 1st eye test Calcified area on cornea (%) [5]: 4.38%
- 2nd eye test Calcified area on cornea (%) [6]: 50.36%
- Difference between 1st and 2nd tests (%) [6]: −0.59%
- 1st eye test Calcified area on cornea (%) [6]: 50.95%
- 2nd eye test Calcified area on cornea (%) [7]: 29.27%
- Difference between 1st and 2nd tests (%) [7]: −3.16%
- 1st eye test Calcified area on cornea (%) [7]: 32.43%
- 2nd eye test Calcified area on cornea (%) [8]: 0.00%
- Difference between 1st and 2nd tests (%) [8]: −1.16%
- 1st eye test Calcified area on cornea (%) [8]: 1.16%
- 2nd eye test Calcified area on cornea (%) [9]: 1.00%
- Difference between 1st and 2nd tests (%) [9]: 0.49%
- 1st eye test Calcified area on cornea (%) [9]: 0.51%
- 2nd eye test Calcified area on cornea (%) [10]: 2.09%
- Difference between 1st and 2nd tests (%) [10]: −1.41%
- 1st eye test Calcified area on cornea (%) [10]: 3.50%
- 2nd eye test Calcified area on cornea (%) [11]: 4.69%
- Difference between 1st and 2nd tests (%) [11]: −10.21%
- 1st eye test Calcified area on cornea (%) [11]: 14.90%
- 2nd eye test Calcified area on cornea (%) [12]: 7.72%
- Difference between 1st and 2nd tests (%) [12]: 1.79%
- 1st eye test Calcified area on cornea (%) [12]: 5.93%
- 2nd eye test Calcified area on cornea (%) [13]: 38.86%
- Difference between 1st and 2nd tests (%) [13]: −1.99%
- 1st eye test Calcified area on cornea (%) [13]: 40.85%
- 2nd eye test Calcified area on cornea (%) [14]: 8.37%
- Difference between 1st and 2nd tests (%) [14]: 6.98%
- 1st eye test Calcified area on cornea (%) [14]: 1.39%
- 2nd eye test Calcified area on cornea (%) [15]: 7.29%
- Difference between 1st and 2nd tests (%) [15]: 0.08%
- 1st eye test Calcified area on cornea (%) [15]: 7.21%
- 2nd eye test Calcified area on cornea (%) [16]: 4.91%
- Difference between 1st and 2nd tests (%) [16]: 4.24%
- 1st eye test Calcified area on cornea (%) [16]: 0.67%
- 2nd eye test Calcified area on cornea (%) [17]: 3.73%
- Difference between 1st and 2nd tests (%) [17]: 3.24%
- 1st eye test Calcified area on cornea (%) [17]: 0.49%
- 2nd eye test Calcified area on cornea (%) [18]: 2.01%
- Difference between 1st and 2nd tests (%) [18]: 0.16%
- 1st eye test Calcified area on cornea (%) [18]: 1.85%
- 2nd eye test Calcified area on cornea (%) [19]: 2.09%
- Difference between 1st and 2nd tests (%) [19]: −0.41%
- 1st eye test Calcified area on cornea (%) [19]: 2.50%
- 2nd eye test Calcified area on cornea (%) [20]: 1.62%
- Difference between 1st and 2nd tests (%) [20]: 0.76%
- 1st eye test Calcified area on cornea (%) [20]: 0.86%
- 2nd eye test Calcified area on cornea (%) [21]: 1.54%
- Difference between 1st and 2nd tests (%) [21]: −0.08%
- 1st eye test Calcified area on cornea (%) [21]: 1.62%
- 2nd eye test Calcified area on cornea (%) [22]: 3.09%
- Difference between 1st and 2nd tests (%) [22]: 2.04%
- 1st eye test Calcified area on cornea (%) [22]: 1.05%
- 2nd eye test Calcified area on cornea (%) [23]: 2.24%
- Difference between 1st and 2nd tests (%) [23]: 2.24%
- 1st eye test Calcified area on cornea (%) [23]: 0.00%
